16 molecules from ChEMBL document CHEMBL1151392, “Structure-activity relations of polyfunctional diterpenes of the daphnane type. I. Revised structure for resiniferatoxin and structure-activity relations of resiniferonol and some of its esters” (J Nat Prod, 1982) can be followed below.

Each structure is given as a SMILES string.

The species named for data set [1] is Mus musculus. The data set can be described thus: Toxicity in NMRI mouse assessed as irritant dose 50 causing ear redness after 24 hours assessed per ear. The class given is organism-based. The settings on record: in vivo.
For data set [2], the species on record is Mus musculus. In words: Toxicity in NMRI mouse assessed as irritant dose 50 causing ear redness after 5 hours assessed per ear. The class given is organism-based. The settings on record: in vivo, topical_or_ocular.

For `C=C(C)[C@]12C[C@@H](C)[C@@]34O[C@](Cc5ccccc5)(O[C@@H]1[C@@H]3C=C(COC(C)=O)C[C@]1(O)C(=O)C(C)=C[C@@H]41)O2`, the Activity in the data set listed under Mus musculus [1] and in the data set listed under Mus musculus [2] was over 10 nmol throughout.
In the case of `C=C(C)[C@]1(O)C[C@@H](C)[C@@]2(O)[C@@H](C=C(COC(=O)Cc3ccccc3)C[C@]3(O)C(=O)C(C)=C[C@@H]23)[C@H]1O`, the Activity in the data set listed under Mus musculus [1] and in the data set listed under Mus musculus [2] was over 100 nmol throughout.
`C=C(C)[C@]12C[C@@H](C)[C@@]34O[C@](Cc5ccccc5)(O[C@@H]1[C@@H]3C=C(COC(=O)CCCCC)C[C@]1(O)C(=O)C(C)=C[C@@H]41)O2`: the Activity is given as over 10 nmol in the data set listed under Mus musculus [1] and 8.9 ×10⁻² nmol in the data set filed under Mus musculus [2].
The like results for `C=C(C)[C@]12C[C@@H](C)[C@@]34O[C@](CCCCCCCCCCCCC)(O[C@@H]1[C@@H]3C=C(COC(=O)Cc1cc(OC)cc(OC)c1)C[C@]1(O)C(=O)C(C)=C[C@@H]41)O2` were, in that order, over 5 nmol and over 5 nmol.
For the molecule `COC(=O)Cc1ccc(O)c(OC)c1`, the Activity in the data set filed under Mus musculus [1] is over 100 nmol; in the data set listed under Mus musculus [2], 25 nmol.
On the same counts, the results for `C=C(C)[C@]12C[C@@H](C)[C@@]34O[C@](C)(O[C@@H]1[C@@H]3C=C(COC(=O)Cc1cc(OC)cc(OC)c1)C[C@]1(O)C(=O)C(C)=C[C@@H]41)O2` are over 5 nmol and 2.6 ×10⁻² nmol.
On to `C=C(C)[C@]12C[C@@H](C)[C@@]34O[C@](CCCCCCCCCCCCC)(O[C@@H]1[C@@H]3C=C(CO)C[C@]1(O)C(=O)C(C)=C[C@@H]41)O2`, for which the Activity in the data set filed under Mus musculus [1] was 0.8 nmol; in the data set listed under Mus musculus [2] it was over 30 nmol.
Turning to `C=C(C)[C@]12C[C@@H](C)[C@@]34O[C@](C)(O[C@@H]1[C@@H]3C=C(CO)C[C@]1(O)C(=O)C(C)=C[C@@H]41)O2`, the Activity is given as 12.9 nmol in the data set listed under Mus musculus [1] and over 100 nmol in the data set listed under Mus musculus [2].
For the molecule `C=C(C)[C@]12C[C@@H](C)[C@@]34O[C@](Cc5ccccc5)(O[C@@H]1[C@@H]3C=C(COC(=O)Cc1ccccc1)C[C@]1(O)C(=O)C(C)=C[C@@H]41)O2`, the Activity is on record as over 10 nmol in the data set listed under Mus musculus [1] and 1.7 ×10⁻³ nmol in the data set filed under Mus musculus [2].
The like results for `C=C(C)[C@]12C[C@@H](C)[C@@]34O[C@](Cc5ccccc5)(O[C@@H]1[C@@H]3C=C(COC(=O)Cc1ccc(OC)c(OC)c1)C[C@]1(O)C(=O)C(C)=C[C@@H]41)O2` [RESINIFERATOXIN METHYL ETHER] were, in that order, over 20 nmol and 4.7 ×10⁻⁴ nmol.
For the molecule `C=C(C)[C@]12C[C@@H](C)[C@@]34O[C@](Cc5ccccc5)(O[C@@H]1[C@@H]3C=C(COC(=O)c1ccccc1)C[C@]1(O)C(=O)C(C)=C[C@@H]41)O2`, the Activity in the data set listed under Mus musculus [1] is over 10 nmol; in the data set listed under Mus musculus [2], 1.2 ×10⁻² nmol.
On the same counts, the results for `C=C(C)[C@]1(O)C[C@@H](C)[C@@]2(O)[C@@H](C=C(CO)C[C@]3(O)C(=O)C(C)=C[C@@H]23)[C@H]1O` [RESINIFERONOL] are over 100 nmol and over 100 nmol.
The like results for `C=C(C)[C@]12C[C@@H](C)[C@@]34O[C@](Cc5ccccc5)(O[C@@H]1[C@@H]3C=C(CO)C[C@]1(O)C(=O)C(C)=C[C@@H]41)O2` were, in that order, over 20 nmol and 1 nmol.
Turning to `C=C(C)[C@]12C[C@@H](C)[C@@]34O[C@](Cc5ccccc5)(O[C@@H]1[C@@H]3C=C(COC(=O)Cc1cc(OC)cc(OC)c1)C[C@]1(O)C(=O)C(C)=C[C@@H]41)O2`, the Activity is over 20 nmol in the data set filed under Mus musculus [1] and 6.2 ×10⁻⁴ nmol in the data set filed under Mus musculus [2].
`C=C(C)[C@]12C[C@@H](C)[C@@]34O[C@](Cc5ccccc5)(O[C@@H]1[C@@H]3C=C(COC(=O)Cc1ccc(O)c(OC)c1)C[C@]1(O)C(=O)C(C)=C[C@@H]41)O2` [RESINIFERATOXIN]: the Activity in the data set filed under Mus musculus [1] is given as over 20 nmol; in the data set filed under Mus musculus [2], 1.6 ×10⁻⁵ nmol.
On the same counts, the results for `C=C(C)[C@]12C[C@@H](C)[C@@]34O[C@](CCCCCCCCCCCCC)(O[C@@H]1[C@@H]3C=C(COC(=O)CCCCCCCCCCCCC)C[C@]1(O)C(=O)C(C)=C[C@@H]41)O2` are over 60 nmol and over 60 nmol.
